Data on 36 compounds can be found in patent US20100240713A1, “AROMATIC AND HETEROAROMATIC COMPOUNDS USEFUL IN TREATING IRON DISORDERS” (XENON PHARMACEUTICALS INC., priority 2007, published 2010).

Molecules are shown by their SMILES. Where a name gives a salt, the structure may show the parent alone.

System in the first data set: not given
Assay: not given
Details: not given
What is called melting point is the temperature, or range, at which the solid turns liquid. With `CC(C)c1cc(C(C)C)c(CSC(=N)N)cc1CSC(=N)N` (as salt: hydrobromid) [Example 3.1, (4,6-diisopropyl-1,3-phenylene)bis(methylene)dicarbamimidothioate dihydrobromide], the melting point fell in the range of 208 to 210 °C.

In the case of `Cc1cc(CSC(=N)N)cc(CSC(=N)N)c1` (as salt: hydrobromid) [Example 3.3, (5-methyl-1,3-phenylene)bis(methylene)dicarbamimidothioate dihydrobromide], the melting point was in the range of 240 to 241 °C.

In the next data set the target is T1, DMT1 (Homo sapiens, UniProt P49281).
T1 sequence (P49281 1-568): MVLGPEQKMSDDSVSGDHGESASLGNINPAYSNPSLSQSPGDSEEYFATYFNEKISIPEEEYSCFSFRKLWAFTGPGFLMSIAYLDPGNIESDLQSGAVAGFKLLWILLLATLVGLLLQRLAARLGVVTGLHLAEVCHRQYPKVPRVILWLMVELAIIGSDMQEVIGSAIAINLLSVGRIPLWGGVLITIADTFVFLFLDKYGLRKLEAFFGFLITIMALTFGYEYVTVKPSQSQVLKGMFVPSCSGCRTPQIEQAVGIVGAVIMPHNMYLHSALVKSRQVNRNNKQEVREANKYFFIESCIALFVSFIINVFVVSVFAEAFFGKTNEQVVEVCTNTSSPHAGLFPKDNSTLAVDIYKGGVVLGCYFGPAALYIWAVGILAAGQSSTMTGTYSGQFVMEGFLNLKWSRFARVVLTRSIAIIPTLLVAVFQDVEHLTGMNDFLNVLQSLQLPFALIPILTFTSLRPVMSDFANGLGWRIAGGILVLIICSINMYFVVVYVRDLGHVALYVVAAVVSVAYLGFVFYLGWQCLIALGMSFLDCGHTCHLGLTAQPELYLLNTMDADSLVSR
As to the kind of experiment: DMT1 activity assay (IC50 activity level, Table 1). Type of data set: cell-based. The settings on record: inhibition of DMT1. The source says:
This example discloses various in vitro assay for testing and profiling test agents against DMT1 stably expressed in cells of either an endogenous or recombinant origin. These assays can use stable cell lines overexpressing DMT1 or intestinal cells and intestinal tissue expressing endogenous DMT1. DMT1 function could also be assessed in other cell types that express DMT1. Of greatest relevance would be the erythrocytes (e.g. K562 cells) or hepatocytes (e.g. […]).
DMT1 function can be assessed in a number of ways, including monitoring fluorescence changes of an iron fluorophore (e.g. calcein), monitoring uptake of radiolabelled iron (^55Fe or ^59Fe) (Picard et al., J. Biol. Chem., 2000, 275(46):35738-45 and Wetli et al., Chem. Biol. 2006 September; 13(9):965-72), or by assessing the current or transport of iron and other metals into the cells or tissues using standard electrophysiological techniques (Gunshin et al., Nature, 1997, 388(6641):482-8.).
Variations of these assays involve alterations of incubation times, the iron status of the cells and tissues (which may be modulated by chemical chelators or by harvesting from iron deficient animals), the metal cation detected and the pH of the reaction can generally be made by conventional techniques known to those skilled in the art.
The Example numbers provided in Table 1 correspond to the Examples herein: […]
The IC50 is the point on the concentration scale where inhibition reaches its midpoint. Regarding `Cc1cc(C)c(CNC(=N)N)c(C)c1CNC(=N)N` [Example 1, N-(3-guanidinomethyl-2,4,6-trimethylbenzyl)guanidine, bis(p-toluenesulfonate)], the IC50 was not below 1000 nM.

Compound `Cc1cc(C)c(CSC(=N)N)c(C)c1CSC(=N)N` [Example 3, (2,4,6-trimethyl-1,3-phenylene)bis(methylene)dicarbamimidothioate dihydrochloride] gave an IC50 of 100 to 1000 nM.

Compound `CC(C)c1cc(C(C)C)c(CSC(=N)N)cc1CSC(=N)N` [Example 3.1, (4,6-diisopropyl-1,3-phenylene)bis(methylene)dicarbamimidothioate dihydrobromide] came in with an IC50 not below 1000 nM.

Compound `N=C(N)SCc1cccc(CSC(=N)N)c1` [Example 3.2, 1,3-phenylenebis(methylene)dicarbamimidothioate dihydrobromide] registered an IC50 not below 1000 nM.

`Cc1cc(CSC(=N)N)cc(CSC(=N)N)c1` [Example 3.3, (5-methyl-1,3-phenylene)bis(methylene)dicarbamimidothioate dihydrobromide] yielded an IC50 not below 1000 nM.

Turning to `CCOC(=O)c1cc(C(=O)OCC)c(CSC(=N)N)cc1CSC(=N)N` [Example 3.4, diethyl 4,6-bis(carbamimidoylthiomethyl)isophthalate dihydrobromide], the IC50 is not below 1000 nM.

`Cc1c(C)c(CSC(=N)N)c(C)c(CSC(=N)N)c1C` [Example 3.5, (2,4,5,6-tetramethyl-1,3-phenylene)bis(methylene)dicarbamimidothioate dihydrochloride] yielded a half-maximal inhibitory concentration (IC50) not below 1000 nM.

`N=C(N)SCc1c(Cl)c(Cl)c(Cl)c(CSC(=N)N)c1Cl` [Example 3.6, (2,4,5,6-tetrachloro-1,3-phenylene)bis(methylene)dicarbamimidothioate dihydrochloride] came in with an IC50 not below 1000 nM.

`N=C(N)SCc1nnc(CSC(=N)N)n1N` [Example 3.7, (4-amino-4H-1,2,4-triazole-3,5-diyl)bis(methylene)dicarbamimidothioate dihydrochloride] registered an IC50 not below 1000 nM.

As to `N=C(N)SCc1n[nH]c(CSC(=N)N)n1` [Example 3.8, (1H-1,2,4-triazole-3,5-diyl)bis(methylene)dicarbamimidothiodate dihydrochloride], the IC50 was not below 1000 nM.

As to `N=C(N)SCc1ccc(CSC(=N)N)s1` [Example 3.9, thiophene-2,5-diylbis(methylene)dicarbamimidothioate dihydrochloride], the IC50 is not below 1000 nM.

Consider `N=C(N)SCc1sc(CSC(=N)N)c(-c2ccccc2)c1-c1ccccc1` [Example 3.10, (3,4-diphenylthiophene-2,5-diyl)bis(methylene)dicarbamimidothioate dihydrobromide], for which the IC50 is not below 1000 nM.

`Cc1c(CSC(=N)N)c(C)c(CSC(=N)N)c(C)c1CSC(=N)N` [Example 3.11, (2,4,6-trimethylbenzene-1,3,5-triyl)tris(methylene) tricarbamimidothioate trihydrobromide] displayed an IC50 not below 1000 nM.

As to `N=C(N)SCc1cccc(CSC(=N)N)n1` [Example 3.12, pyridine-2,6-diylbis(methylene)dicarbamimidothioate dihydrobromide], the IC50 was not below 1000 nM.

Compound `N=C(N)SCc1cccc2cccc(CSC(=N)N)c12` [Example 3.13, naphthalene-1,8-diylbis(methylene)dicarbamimidothioate dihydrobromide] came in with an IC50 not below 1000 nM.

In turn, `N#Cc1c(CSC(=N)N)cccc1CSC(=N)N` [Example 3.14, (2-cyano-1,3-phenylene)bis(methylene)dicarbamimidothioate dihydrobromide] came in with an IC50 not below 1000 nM.

Compound `N=C(N)SCc1ccccc1CSC(=N)N` [Example 3.15, (1,2-phenylene)bis(methylene)dicarbamimidothioate dihydrobromide] yielded an IC50 not below 1000 nM.

Consider `Cc1cc(C)c(CSC(=N)N)cc1CSC(=N)N` [Example 3.16, (4,6-dimethyl-1,3-phenylene)bis(methylene)dicarbamimidothioate dihydrochloride], for which the IC50 was 100 to 1000 nM.

Compound `Cc1c(CSC(=N)N)cc(CSC(=N)N)c(C)c1Br` [Example 3.17, (5-bromo-4,6-dimethyl-1,3-phenylene)bis(methylene) dicarbamimidothioate dihydrochloride] yielded an IC50 not below 1000 nM.

The compound `COc1c(CSC(=N)N)cc(C)cc1CSC(=N)N` [Example 3.18, (2-methoxy-5-methyl-1,3-phenylene)bis(methylene)dicarbamimidothioate dihydrobromide] returned an IC50 not below 1000 nM.

As for `Cc1c(O)c(C)c(CSC(=N)N)c(C)c1CSC(=N)N` [Example 3.19, (5-hydroxy-2,4,6-trimethyl-1,3-phenylene)bis(methylene) dicarbamimidothioate dihydrochloride], the IC50 lay in the range of 100 to 1000 nM.

Regarding `N=C(N)SCc1ccc2ccccc2c1CSC(=N)N` [Example 3.20, naphthalene-1,2-diylbis(methylene)dicarbamimidothioate dihydrobromide], the IC50 was not below 1000 nM.

The compound `Cc1c(CSC(=N)N)cccc1CSC(=N)N` [Example 3.21, (2-methyl-1,3-phenylene)bis(methylene)dicarbamimidothioate dihydrobromide] had an IC50 of 100 to 1000 nM.

Compound `Cc1c(C)c(C)c(CSC(=N)N)c(CSC(=N)N)c1C` [Example 3.22, (3,4,5,6-tetramethyl-1,2-phenylene)bis(methylene)dicarbamimidothioate dihydrobromide] displayed an IC50 not below 1000 nM.

In the case of `N=C(N)Sc1cccc(SC(=N)N)c1` [Example 5, 1,3-phenylene dicarbamimidothioate dihydroiodide], the IC50 is not below 1000 nM.

In turn, `CC(C)(SC(=N)N)c1cccc(C(C)(C)SC(=N)N)c1` [Example 6, 2-{1-[3-(1-carbamimidoylsulfanyl-1-methylethyl)phenyl]-1-methylethyl}-isothiourea dihydrobromide] returned an IC50 not below 1000 nM.

In turn, `Cc1cc(C)c(C(C)SC(=N)N)c(C)c1C(C)SC(=N)N` (stereo not drawn) [Example 6.1, 2-{1-[3-(1-carbamimidoylsulfanylethyl)-2,4,6-trimethylphenyl]ethyl}-isothiourea dihydrobromide] had an IC50 of 100 to 1000 nM.

`Cc1cc(CSC(=N)N)c(O)c(CSC(=N)N)c1` [Example 6.2, (2-hydroxy-5-methyl-1,3-phenylene)bis(methylene)dicarbamimidothioate dihydrobromide]: the IC50 is not below 1000 nM.

Regarding `Cc1c(CSC(=N)N)sc(CSC(=N)N)c1C` [Example 6.3, (3,4-dimethylthiophene-2,5-diyl)bis(methylene)dicarbamimidothioate dihydrobromide], the IC50 is not below 1000 nM.

For the compound `Cc1c(CSC(=N)N)sc2sc(CSC(=N)N)c(C)c12` [Example 6.4, (3,4-dimethylthieno[2,3-b]thiophene-2,5-diyl)bis(methylene)dicarbamimidothioate dihydrobromide], the IC50 was not below 1000 nM.

For `COc1ccc(CSC(=N)N)cc1CSC(=N)N` [Example 6.5, (4-methoxy-1,3-phenylene)bis(methylene)dicarbamimidothioate dihydrobromide], the IC50 is not below 1000 nM.

The compound `COc1cc(CSC(=N)N)cc(CSC(=N)N)c1` [Example 6.6, (5-methoxy-1,3-phenylene)bis(methylene)dicarbamimidothioate dihydrobromide] yielded an IC50 not below 1000 nM.

As for `Cc1nc(C)c(CSC(=N)N)c(C)c1CSC(=N)N` [Example 8, (2,4,6-trimethylpyridine-3,5-diyl)bis(methylene)dicarbamimidothioate dihydrochloride], the IC50 is not below 1000 nM.

As for `N=C(N)SC(=O)c1sc(C(=O)SC(=N)N)c(Cl)c1Cl` [Example 9, 2-(5-carbamimidoylsulfanecarbonyl-3,4-dichlorothiophene-2-carbonyl)isothiourea dihydrochloride], the IC50 was not below 1000 nM.
